The values that follow come from US8691511B2, “Hydroxylated 1,2,4-oxadiazole benzoic acid compounds, compositions thereof and their use in bioassays” (PTC Therapeutics, Inc., priority 2006, dated 2014).

Test [1] has as its system luciferase reporter construct containing a UGA premature termination codon. The experiment in a line: cell-based luciferase reporter assay (nonsense suppression). The settings on record: 293T Human Embryonic Kidney cells stably transfected with UGA luciferase reporter; internal standard. The source says:
(§1) Two assays were developed for use in high throughput screens to identify small molecules that promote nonsense suppression. Each assay utilized luciferase because it is a functional reporter gene assay (light is only produced if the protein is functional) and it is extremely sensitive (Light intensity is proportional to luciferase concentration in the nM range). The first assay is a cell-based luciferase reporter assay and the second is a biochemical assay consisting of rabbit reticulocyte lysate and a nonsense-containing luciferase reporter mRNA. In the cell-based assay, a luciferase reporter construct containing a UGA premature termination codon was stably transfected in 293T Human Embryonic Kidney cells. In the biochemical assay, mRNA containing a UGA premature termination codon was used as a reporter in an in vitro translation reaction using rabbit reticulocyte lysate supplemented with tRNA, hemin, creatine kinase, amino acids, KOAc, Mg(OAc)2, and creatine phosphate. […] Synthetic mRNA was prepared in vitro using the T7 promoter and the MegaScript in vitro transcription kit (Ambion).

Test [2] has as its system mRNA containing a UGA premature termination codon. The experiment in a line: biochemical in vitro translation assay, rabbit reticulocyte lysate with nonsense-containing luciferase reporter mRNA. The settings on record: in vitro translation reaction using rabbit reticulocyte lysate, internal standard.
Description: as §1
In general terms: In a reporter assay the amount or activity of a reporter protein is the signal.

Each structure is given as a SMILES string.

As for `CC(C)c1ccc(N2CC(=O)N(c3cccc(C(=O)O)c3)C2=O)cc1` [3-[3-(4-Isopropyl-phenyl)-2,5-dioxo-imidazolidin-1-yl]-benzoic acid], the luciferase activity entry in test [1] and in test [2] was “increased luciferase activity” throughout.
